The source of these data is US20090123389A1, “Methods for modulating Th17 cell development in the treatment and prevention of cellulite” (priority 2007, published 2009).

For assay [1], the system named is CD4+ CD25− T cells. In words: Th17 differentiation / IL-17 expression of activated CD4+ CD25− T cells (TGFβ plus IL-6). The assay is classed as cell-based, mouse. The conditions noted are these: for inhibition of IL-17 expression by HPLC-purified enantiomers: TGFβ plus IL-6, day 4, compared with racemic mix. The procedure:
Low doses of halofuginone (HF) were tested to determine the ability of HF to enhance Treg differentiation, while suppressing Th17 differentiation. Naïve CD4+ T cells (CD4+ CD25−) were isolated from the spleen and peripheral lymph nodes of C57B/6 mice. T cells were then activated using anti-CD3 (0.3 μg/ml) and anti-CD28 (0.5 μg/ml) antibodies either in media alone (row 1, 4), TGFβ alone (3 ng/ml—row 2, 5) or TGFβ (3 ng/ml) plus IL-6 (30 ng/ml) (row 3, 6). […] T cells were cultured for 3 days and CD25 and Foxp3 expression (Treg marker genes) was determine by FACS staining and flow cytometric analyses. Simultaneously, T cells were harvested and re-stimulated for 4 hours using phorbol myristic acetate (PMA; 10 nM), Ionomycin (1 μM) and cytokine secretion was prevented using brefeldin A (20 μg/ml). Following stimulation, the production of IL-17 and IFNγ were determined by intracellular staining and analyzed via flow cytometry.
The dose-response of HF on CD4+ T cell proliferation, activation (i.e. CD25 upregulation) and differentiation to Th1, Th2 and Th17 lineages were evaluated. Purified murine naïve CD4+ CD25− T cells were activated using anti-CD3 (0.3 μg/ml) and anti-CD28 (0.5 μg/ml) antibodies and varying amounts of HF was added to each T cell culture condition (1.25 nM-40 nM). CD4+ T cell proliferation was monitored by CFSE dilution on day 3-post activation and CD25 expression was evaluated by FACS staining 2 days after activation. For T cell differentiation experiments, naïve T cells were activated as above in the presence of Th1 (IL-12 (20 ng/ml) plus anti-IL-4 (1.5 μg/ml)), Th2 (IL-4 (50 ng/ml) plus anti-IFNγ (0.5 mg/ml)) or Th17 (TGFβ (3 ng/ml) plus IL-6 (30 ng/ml)) polarizing conditions plus titrating amounts of HF (1.25 nM-40 nM) or MAZ1310 (40 nM). […] All cytokine expression was determined by intracellular staining following PMA+Ionomycin+Brefeldin A re-stimulation and all data was normalized to control (MAZ1310)-treated cells. […] Biol., vol. 80:1-8 (2006).
(§1) Cytokines, antibodies and T cell culture: Purified CD4^+ CD25^− T cells were activated in vitro as previously described (I. M. Djuretic et al., Nat Immunol 8, 145 (2007)) using 0.3 μg/ml hamster anti-mouse CD3 (clone 145-2C11) (ATCC—Manassas, Va.) and 0.5 μg/ml hamster anti-mouse CD28 (BD Pharmingen, San Jose, Calif.). Activated cell cultures were differentiated using the following combinations of cytokines and antibodies: iTreg=recombinant human TGFβ1 (3 ng/ml; R&D systems, Minneapolis, Minn.), Th17=TGFβ1 (3 ng/ml) plus recombinant mouse IL-6 (30 ng/ml, R&D systems). Th1 and Th2 differentiation was performed as previously described. (I. M. Djuretic et al., Nat Immunol 8, 145 (2007)). Human IL-2 supernatant (National Cancer Institute) was used in culture at 0.01 U/ml and was added at 48 hours-post activation when T cells were split into tissue culture wells lacking CD3 and CD28 antibodies, with the exception of Th17 cultures that were maintained in the absence of IL-2. All reagents were added at the time of T cell activation and again at 48-hours post activation unless indicated otherwise. For some experiments, purified CD4^+ CD25^− T cells, CD8^+ T cells or B cells were labeled with 1 μM CFSE (Invitrogen) prior to activation in accordance with manufacturers instructions.
MAZ1310 was generated by chemical derivatization of halofuginone and was used at equal concentrations as a negative control.

A further assay has as its system TGFβ signaling. In words: TGFβ signaling in T and B cells (Smad phosphorylation, lymphocyte responses to TGFβ). The conditions noted are these: HF 10 nM (2.5-40 nM for Smad); SB-431542 10 μM. The assay is classed as cell-based, mouse. The procedure: DMSO, 10 nM HF, 10 nM MAZ1310 or 10 μM SB-431542 was added as indicated at the time of activation and intracellular cytokine staining was performed on expanded T cells on day 5 as in FIG. 14B
FIG. 15B is an illustration depicting the analysis of CD8^+ T cells that were activated in the presence or absence of TGFβ and cultured with DMSO, 10 nM HF, 10 nM MAZ1310 or 10 μM SB-431542. Expanded cells were restimulated on day 5 and intracellular staining was performed as above.
FIG. 15C is an illustration depicting the analysis of CFSE-labeled B cells that were activated by LPS stimulation in the presence or absence of TGFβ plus DMSO, 10 nM HF, 10 nM MAZ1310 or 10 μM SB-431542. Intracellular IL-6 production in B cells re-stimulated with PMA plus ionomycin, or cell-surface IgA expression was determined 4 days after activation by FACS analyses.
T cells were then activated in the presence or absence of 3 ng/ml TGFβ. Whole cell extracts were prepared after 1 hour of stimulation and western blot analyses were performed using the indicated antibodies.
Western blotting: Whole cell lysates were generated from T cells activated for the indicated times. For STAT3 and Smad2/3 western blots cells were harvested, washed in PBS and lysed in 50 mM Tris, pH 7.4, 0.1% SDS, 1% Triton-×100, 140 mM NaCl, 1 mM EDTA, 1 mM EGTA supplemented with protease inhibitors tablets (Roche—Germany), 1 mM NaF and 1 mM Na3VO4. […]

Assay [2] concerns unfolded protein response (Xbp-1 splicing). Put plainly: Xbp-1 splicing / ER stress response in activated T cells. The conditions noted are these: tunicamycin 1 μg/ml or 10 nM HF, 4 hours.
For assay [3], the system named is CD4+ CD25− T cells. In words: CD4+ T cell proliferation, CD25 upregulation, cytokine production, Th1/Th2/iTreg differentiation. The assay is classed as cell-based, mouse. The following applies: titrating concentrations of tunicamycin. How it is done: The dose-response of HF on CD4+ T cell proliferation, activation (i.e. CD25 upregulation) and differentiation to Th1, Th2 and Th17 lineages were evaluated. Purified murine naïve CD4+ CD25− T cells were activated using anti-CD3 (0.3 μg/ml) and anti-CD28 (0.5 μg/ml) antibodies and varying amounts of HF was added to each T cell culture condition (1.25 nM-40 nM). CD4+ T cell proliferation was monitored by CFSE dilution on day 3-post activation and CD25 expression was evaluated by FACS staining 2 days after activation. For T cell differentiation experiments, naïve T cells were activated as above in the presence of Th1 (IL-12 (20 ng/ml) plus anti-IL-4 (1.5 μg/ml)), Th2 (IL-4 (50 ng/ml) plus anti-IFNγ (0.5 mg/ml)) or Th17 (TGFβ (3 ng/ml) plus IL-6 (30 ng/ml)) polarizing conditions plus titrating amounts of HF (1.25 nM-40 nM) or MAZ1310 (40 nM). The percentage of Th17 cells, (IL-17^+ IFNγ^−) was evaluated on day 3 following activation, whereas the abundance of Th1 cells (IFNγ^+ IL-4) and Th2 cells (IL-4^+ IFNγ^−) was determined 5 days following activation. All cytokine expression was determined by intracellular staining following PMA+Ionomycin+Brefeldin A re-stimulation and all data was normalized to control (MAZ1310)-treated cells. […] Biol., vol. 80:1-8 (2006).
as §1
Detection of cytokine production: Cytokines secreted into media supernatant were measured using the mouse Th1/Th2 cytometric bead array (CBA, BD Pharmingen) in accordance with manufacturers instructions. Briefly, CD4^+ CD25^− T cells were activated in anti-CD3/anti-CD28-coated tissue culture wells and supernatants were collected at the indicated times. For detection of intracellular cytokines in murine cells, cultured T or B cells were stimulated with 10 nM PMA (Sigma) and […] (Sigma) for 4-5 hours in the presence of […] (Sigma). Stimulated cells were harvested, washed with PBS and fixed with PBS plus 4% paraformaldehyde at room temperature for 20 minutes. […]

In the case of `O=C(CC1NCCCC1O)Cn1cnc2cc(Br)c(Cl)cc2c1=O` (single isomer, unassigned) [D-enantiomer of HF], in the assay with CD4+ CD25− T cells [1], the “inhibition of IL-17 expression by HPLC-purified enantiomers” value is “more potently than a racemic mix”. The same measure, in the same setting: as for `O=C(CC1NCCCC1O)Cn1cnc2cc(Br)c(Cl)cc2c1=O` (single isomer, unassigned) [L-enantiomer], the entry is “completely inactive”. Take `N[C@H](CO)Cc1c[nH]c2ccccc12` [L-tryptophanol]: the IL-17 production result in the assay on CD4+ CD25− T cells [1] (0.2 mM L-tryptophanol, TGFβ plus IL-6) is “impaired IL-17 production”. In the case of `CC(C)(C)OC(=O)N1CCC[C@H](O)[C@H]1CC(=O)Cn1cnc2cc(Br)c(Cl)cc2c1=O` [MAZ1310], the “activity of HF derivative used as negative control” value with CD4+ CD25− T cells [1] (used at equal concentrations as HF) was “inactive”.

For `NC(=O)c1ccc(-c2nc(-c3ccc4c(c3)OCO4)c(-c3ccccn3)[nH]2)cc1` [SB-431542], the “TGFβ-induced Smad phosphorylation and other lymphocyte responses to TGFβ” value in the assay with TGFβ signaling is recorded as “abrogated all responses to TGFβ”. Take tunicamycin: in the assay on CD4+ CD25− T cells [1] (titrating concentrations of tunicamycin), the “IL-17 expression in T cells” value was “little influence”. Moreover, in assay [2], the Xbp-1 splicing result is recorded as “together with Xbp-1 splicing”. Also, in the assay with CD4+ CD25− T cells [3], the “Th1 and Th2 differentiation” value is “preferentially impaired”.
